# According to patent US10889565B2, “4-hydroxy-3-sulfonylpyridin-2(1H)-ones as APJ receptor agonists” (BRISTOL-MYERS SQUIBB COMPANY, priority 2016, dated 2021):
# Target: T1, human APJ receptor (Homo sapiens, UniProt P35414)
# T1 construct: expressed in transfected cells
# T1 sequence (P35414 1-380): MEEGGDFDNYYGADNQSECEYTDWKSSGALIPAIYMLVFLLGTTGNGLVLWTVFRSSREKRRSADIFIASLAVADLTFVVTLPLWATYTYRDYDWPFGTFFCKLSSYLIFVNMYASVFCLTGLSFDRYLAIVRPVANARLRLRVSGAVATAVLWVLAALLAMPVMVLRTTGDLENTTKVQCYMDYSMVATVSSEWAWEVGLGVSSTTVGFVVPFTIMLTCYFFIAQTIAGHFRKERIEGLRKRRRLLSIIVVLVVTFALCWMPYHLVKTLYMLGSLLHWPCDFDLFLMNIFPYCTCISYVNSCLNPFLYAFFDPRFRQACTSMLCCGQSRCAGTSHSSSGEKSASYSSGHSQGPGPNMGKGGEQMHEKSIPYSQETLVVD
# Assay: Intracellular cAMP accumulation assay (APJ hcAMP, HTRF)
# Type: cell-based
# Conditions: HEK293 cells stably expressing human APJ receptor; inhibition of forskolin-mediated cAMP production; read-out: Human APJ cAMP EC50 Potency range
# Procedure: Intracellular cAMP Accumulation Assay
# HEK293 cells stably expressing human APJ receptor were used to assess the activity of compounds. Cultured cells were detached and resuspended in the cAMP Homogeneous Time-Resolved Fluorescence (HTRF) assay buffer (Cisbio cat; #62AM4PEJ). The assay was performed in 384-well assay plates (Perkin-Elmer; cat #6008289) according to assay protocol provided by the manufacturer. Serial dilutions of a compound together with assay buffer containing […] IBMX and 2 μM forskolin were added to each well containing 5,000 cells and incubated for 30 minutes at room temperature. Subsequently, cAMP D2 reagent was added in the lysis buffer followed by the EuK antibody (Cisbio; cat #62AM4PEJ) and incubated for 60 min. The fluorescence emission ratio was measured using fluorometer. The intracellular cAMP concentrations (compound-stimulated inhibition of forskolin-mediated cAMP production) were calculated by extrapolation from a standard curve using known cAMP concentrations. The EC50 values were obtained by fitting the data to a sigmoidal concentration-response curve with variable slope. The maximal achievable inhibition of forskolin-induced cAMP levels (Ymax) for each compound was expressed as relative percentage of inhibition attained using pyroglutamated apelin-13 ((Pyr1)apelin-13) peptide, which was set to 100%.
# The examples disclosed below were tested in the APJ in vitro assays described above and were found having human APJ cyclic AMP (hcAMP) activity. The EC50 value of each compound is presented at the end of the example description.
# The biological activity of the exemplified compounds of this invention determined by the assay described above is shown at the end of each example.
row,Structure (SMILES),EC50 [nM]
1,"CCCCc1[nH]c(=O)c(S(=O)(=O)c2ccc(Nc3ccc(F)cc3)cc2)c(O)c1-c1c(OC)cccc1OC [Example 29, 6-butyl-5-(2,6-dimethoxyphenyl)-3-((4-((4-fluorophenyl)amino)phenyl)sulfonyl)-4-hydroxypyridin-2(1H)-one]",0.01 to 10
2,"CCCCc1[nH]c(=O)c(S(=O)(=O)c2ccc(C3CC3)cc2)c(O)c1-c1c(OC)cccc1OC [Example 7, 6-butyl-3-((4-cyclo-propylphenyl)sulfonyl)-5-(2,6-dimethoxy-phenyl)-4-hydroxy-pyridin-2(1H)-one]",0.01 to 10
3,"CCCCc1[nH]c(=O)c(S(=O)(=O)c2ccc(-c3cncc(F)c3)cc2)c(O)c1-c1c(OC)cccc1OC [Example 4, 6-butyl-5-(2,6-dimethoxy-phenyl)-3-((4-(5-fluoro-pyridin-3-yl)phenyl)sulfonyl)-4-hydroxy-pyridin-2(1H)-one]",0.01 to 10
4,"CCCCc1[nH]c(=O)c(S(=O)(=O)c2ccc(C)cn2)c(O)c1-c1c(OC)cccc1OC [Example 39, 6-butyl-5-(2,6-dimethoxy-phenyl)-4-hydroxy-3-((5-methyl-pyridin-2-yl)sulfonyl) pyridin-2(1H)-one]",0.01 to 10
5,"CCCCc1[nH]c(=O)c(S(=O)(=O)c2ccc(Nc3ccc(F)nc3)cc2)c(O)c1-c1c(OC)cccc1OC [Example 28, 6-butyl-5-(2,6-dimethoxyphenyl)-3-((4-((6-fluoropyridin-3-yl)amino)phenyl)sulfonyl)-4-hydroxypyridin-2(1H)-one]",0.01 to 10
6,"CCCCc1[nH]c(=O)c(S(=O)(=O)c2ccc(NC(=O)c3ccc(F)cc3)cc2)c(O)c1-c1c(OC)cccc1OC [Example 30, N-(4-((6-butyl-5-(2,6-dimethoxyphenyl)-4-hydroxy-2-oxo-1,2-dihydropyridin-3-yl)sulfonyl)phenyl)-4-fluorobenzamide]",0.01 to 10
7,"COc1cccc(OC)c1-c1c(-c2ccc(F)cc2)[nH]c(=O)c(S(=O)(=O)c2ccc(-n3cc(Cl)ccc3=O)cc2)c1O [Example 23, 3-((4-(5-chloro-2-oxopyridin-1(2H)-yl)phenyl)sulfonyl)-5-(2,6-dimethoxy-phenyl)-6-(4-fluorophenyl)-4-hydroxy-pyridin-2(1H)-one]",0.01 to 10
8,"CCOCc1[nH]c(=O)c(S(=O)(=O)c2ccc(-c3ccc(F)cc3)cc2)c(O)c1-c1c(OC)cccc1OC [Example 9, 5-(2,6-dimethoxy-phenyl)-6-(ethoxymethyl)-3-((4′-fluoro-[1,1′-biphenyl]-4-yl)sulfonyl)-4-hydroxypyridin-2(1H)-one]",0.01 to 10
9,"CCCCc1[nH]c(=O)c(S(=O)(=O)c2ccccc2)c(O)c1-c1c(OC)cccc1OC [Example 10, 6-butyl-5-(2,6-dimethoxy-phenyl)-4-hydroxy-3-(phenyl-sulfonyl) pyridin-2(1H)-one]",0.01 to 10
10,"CCCCc1[nH]c(=O)c(S(=O)(=O)c2ccc(-c3ccnc(N4CCOCC4)c3F)cn2)c(O)c1-c1c(OC)cccc1OC [Example 40, 6-butyl-5-(2,6-dimethoxy-phenyl)-3-((3′-fluoro-2′-morpholino-[3,4′-bipyridin]-6-yl)sulfonyl)-4-hydroxypyridin-2(1H)-one]",0.01 to 10
11,"CCCCc1[nH]c(=O)c(S(=O)(=O)c2ccc(-c3ccnc4[nH]ccc34)cn2)c(O)c1-c1c(OC)cccc1OC [Example 47, 3-((5-(1H-pyrrolo[2,3-b]pyridin-4-yl)pyridin-2-yl)sulfonyl)-6-butyl-5-(2,6-dimethoxy-phenyl)-4-hydroxy-pyridin-2(1H)-one]",0.01 to 10
12,"CCCCc1[nH]c(=O)c(S(=O)(=O)c2ccc(-c3ccc(C(=O)NC4CC4)cc3)cn2)c(O)c1-c1c(OC)cccc1OC [Example 45, 4-(6-((6-butyl-5-(2,6-dimethoxy-phenyl)-4-hydroxy-2-oxo-1,2-dihydro-pyridin-3-yl)sulfonyl)pyridin-3-yl)-N-cyclopropyl-benzamide]",0.01 to 10
13,"CCCCc1[nH]c(=O)c(S(=O)(=O)c2ccc(C3CC3)cn2)c(O)c1-c1c(OC)cccc1OC [Example 51, 6-Butyl-3-((5-cyclopropylpyridin-2-yl)sulfonyl)-5-(2,6-dimethoxyphenyl)-4-hydroxypyridin-2(1H)-one]",0.01 to 10
14,"CCCCc1[nH]c(=O)c(S(=O)(=O)c2ccc(-c3ccc(F)cc3)cc2)c(O)c1-c1c(OC)cccc1OC [Example 13, 6-butyl-5-(2,6-dimethoxy-phenyl)-3-((4′-fluoro-[1,1′-biphenyl]-4-yl)sulfonyl)-4-hydroxy-pyridin-2(1H)-one]",10 to 100
15,"CCCCc1[nH]c(=O)c(S(=O)(=O)c2cccc[n+]2[O-])c(O)c1-c1c(OC)cccc1OC [Example 18, 6-butyl-5-(2,6-dimethoxy-phenyl)-4-hydroxy-3-((1-hydroxy-1l4-pyridin-2-yl)sulfonyl) pyridin-2(1H)-one]",100 to 300
16,"CCOCc1[nH]c(=O)c(S(=O)(=O)c2ccc(-n3cc(Cl)ccc3=O)cc2)c(O)c1-c1c(OC)cccc1OC [Example 21, 3-((4-(5-chloro-2-oxopyridin-1(2H)-yl)phenyl)sulfonyl)-5-(2,6-dimethoxy-phenyl)-6-(ethoxymethyl)-4-hydroxy-pyridin-2(1H)-one]",0.01 to 10
17,"CCOCc1[nH]c(=O)c(S(=O)(=O)c2ccc(Br)cc2)c(O)c1-c1c(OC)cccc1OC [Example 14, 3-((4-bromophenyl)sulfonyl)-5-(2,6-dimethoxy-phenyl)-6-(ethoxymethyl)-4-hydroxy-pyridin-2(1H)-one]",10 to 100
18,"CCCCc1[nH]c(=O)c(S(=O)(=O)c2ccc(N)cc2)c(O)c1-c1c(OC)cccc1OC [Example 27, 3-((4-aminophenyl)sulfonyl)-6-butyl-5-(2,6-dimethoxyphenyl)-4-hydroxypyridin-2(1H)-one]",0.01 to 10
19,"CCCCc1[nH]c(=O)c(S(=O)(=O)c2ccc(NC(=O)OC(C)(C)C)cc2)c(O)c1-c1c(OC)cccc1OC [Example 8, tert-butyl (4-((6-butyl-5-(2,6-dimethoxy-phenyl)-4-hydroxy-2-oxo-1,2-dihydro-pyridin-3-yl)sulfonyl)phenyl) carbamate]",0.01 to 10
20,"CCCCc1[nH]c(=O)c(S(=O)(=O)c2ccc(-c3ccc(F)cc3C)cn2)c(O)c1-c1c(OC)cccc1OC [Example 36, 6-butyl-5-(2,6-dimethoxy-phenyl)-3-((5-(4-fluoro-2-methylphenyl)pyridin-2-yl)sulfonyl)-4-hydroxy-pyridin-2(1H)-one]",0.01 to 10
21,"CCOCc1[nH]c(=O)c(S(=O)(=O)c2ccc(-c3ccc(F)nc3)cc2)c(O)c1-c1c(OC)cccc1OC [Example 12, 5-(2,6-dimethoxy-phenyl)-6-(ethoxymethyl)-3-((4-(6-fluoro-pyridin-3-yl)phenyl)sulfonyl)-4-hydroxy-pyridin-2(1H)-one]",0.01 to 10
22,"CCCCc1[nH]c(=O)c(S(=O)(=O)c2ccc(-c3ccc(F)nc3C)cn2)c(O)c1-c1c(OC)cccc1OC [Example 41, 6-butyl-5-(2,6-dimethoxy-phenyl)-3-((6′-fluoro-2′-methyl-[3,3′-bipyridin]-6-yl)sulfonyl)-4-hydroxypyridin-2(1H)-one]",0.01 to 10
23,"CCCCc1[nH]c(=O)c(S(=O)(=O)c2ccc(-c3ccc(OC(F)(F)F)cc3)cn2)c(O)c1-c1c(OC)cccc1OC [Example 35, 6-butyl-5-(2,6-dimethoxy-phenyl)-4-hydroxy-3-((5-(4-(trifluoro-methoxy)phenyl)pyridin-2-yl)sulfonyl) pyridin-2(1H)-one]",0.01 to 10
